Results on 1 molecule are retold here after patent US20220370636A1, “NICOTINAMIDE ADENINE DINUCLEOTIDE ACTIVATOR AND USE THEREOF” (University of South Florida, priority 2021, published 2022).

The subject of assay [1] is db/db mice. Kind of assay: Serum pyruvate in db/db mice. It counts as in vivo. The conditions noted are these: vs db-Veh. How it is done: Serum pyruvate enzymatic activity. Serum pyruvate levels were measured using the pyruvate assay kit (Sigma-Aldrich, MO, USA) as per manufacturer's protocol. Briefly, 5 μL of the serum samples were added to each well along with the pyruvate assay buffer, probe solution and the enzyme mix, and incubated for 30 min at RT.

The subject of assay [2] is db/db mice. Kind of assay: Fasting blood glucose and GTT in db/db mice (Example 5). It counts as in vivo. The text has this: Fasting blood glucose. Mice were fasted overnight, and the tail vein blood was used for measuring the blood glucose levels of the diabetic mice treated with either Vehicle (db/db Veh) or P7C3 (db/db P7C3) for 4 weeks.
Glucose tolerance test. […] Blood samples were obtained by the submandibular puncture technique.

Another assay concerns db/db mice hearts. Kind of assay: Pyridine nucleotide measurements in db/db hearts. Type of assay: in vivo. The settings on record: vs vehicle control. How it is done: Pyridine nucleotide measurements. NADH/NAD^+ ratios were determined in frozen db/db heart tissues (from the vehicle and P7C3 treated mice) using commercially available EnzyChrome kit (Bioassays, Hayward, Calif., USA) as reported before. Following manufacturer's instructions, cardiac tissue was homogenized in 100 μl of NAD^+ or NADH extraction buffer for NAD^+ and NADH determination, respectively. Samples were heated at 60° C. for 5 minutes on a heat block and neutralized by adding 100 μl of the opposite extraction buffer. Samples were then mixed by brief vortexing and centrifuged at 14,000 rpm for 5 minutes. 40 μl of supernatant from each sample was dispensed in duplicates in a 96-well plate, and 80 μl of working reagent constituted with supplier provided assay buffer, lactate dehydrogenase, lactate and MTT reagent was added to each well. Samples were gently mixed and optical density at 565 nm was acquired immediately (0 min) and after 15 minutes, at room temperature using a microplate reader. A standard curve was utilized for calculating NADH/NAD^+ levels in each sample.

For the next assay, the system named is db/db hearts. As to the kind of experiment: Ex vivo ischemia reperfusion (Langendorff) in db/db hearts. Details: species or system mice. As for the experimental part:
Ex vivo ischemia reperfusion protocol. Mice were injected with heparin (360 USP units, Sigma-Aldrich, MO, USA) and euthanized with Somnasol™ (pentobarbital, 50 mg/kg i.p. body weight). Hearts were then excised and mounted on to the Langendorff apparatus immediately and perfused with Krebs-Hanseleit buffer containing (in mM): 119 NaCl, 25 NaHCO3, 4 KCl, 1 MgCl2, 1.8 CaCl2), 1 MgCl2, 10 glucose and 2 Sodium pyruvate, pH 7.4, that was constantly bubbled with carbogen gas and maintained at 37° C. as described previously. Perfusion was maintained at a constant flow of ˜2.2 ml/min. Hearts were stabilized for 30 min before proceeding to the ischemic phase. Hearts that underwent P7C3 (3 μM) treatment during the Langendorff procedure were allowed to stabilize for 10 mins then a 20 min perfusion with P7C3 (3 μM) (within Krebs-Hanseleit buffer) as pre-ischemic dosing. Cardiac ischemia was induced by the pause in Krebs-Hanseleit buffer perfusion for 45 min. Reperfusion was induced with the induction of Krebs-Hanseleit buffer at a constant flow of ˜2.2 ml/min for 2 hours. […] Image J software was utilized to quantify the ischemic areas for several sections per heart, which were then averaged and divided by the total area of the heart section and multiplied by a factor of ×100(%) to determine the overall damage percentage per heart. […]

The next assay has as its system C57Bl/6J wildtype hearts. As to the kind of experiment: Ex vivo ischemia reperfusion (Langendorff) in wildtype hearts. Details: species or system mice. How it is done: Ex vivo ischemia reperfusion protocol. Mice were injected with heparin (360 USP units, Sigma-Aldrich, MO, USA) and euthanized with Somnasol™ (pentobarbital, 50 mg/kg i.p. body weight). Hearts were then excised and mounted on to the Langendorff apparatus immediately and perfused with Krebs-Hanseleit buffer containing (in mM): 119 NaCl, 25 NaHCO3, 4 KCl, 1 MgCl2, 1.8 CaCl2), 1 MgCl2, 10 glucose and 2 Sodium pyruvate, pH 7.4, that was constantly bubbled with carbogen gas and maintained at 37° C. as described previously. Perfusion was maintained at a constant flow of ˜2.2 ml/min. Hearts were stabilized for 30 min before proceeding to the ischemic phase. Hearts that underwent P7C3 (3 μM) treatment during the Langendorff procedure were allowed to stabilize for 10 mins then a 20 min perfusion with P7C3 (3 μM) (within Krebs-Hanseleit buffer) as pre-ischemic dosing. Cardiac ischemia was induced by the pause in Krebs-Hanseleit buffer perfusion for 45 min. Reperfusion was induced with the induction of Krebs-Hanseleit buffer at a constant flow of ˜2.2 ml/min for 2 hours. Hearts that underwent P7C3 (3 μM) treatment received 2-hour reperfusion with P7C3 within the Krebs-Hanseleit buffer. Hearts were then removed from the Langendorff apparatus and immediately placed in −20° C. freezer for 30 minutes. Hearts were then placed on a sectioning block and sliced into ([…]) slices. Heart sections were subjected to 2,3,5-Triphenyltetrazolium chloride (TTC) staining for 30 minutes. Hearts were then imaged and scanned for ischemic damage assessment. Image J software was utilized to quantify the ischemic areas for several sections per heart, which were then averaged and divided by the total area of the heart section and multiplied by a factor of ×100(%) to determine the overall damage percentage per heart.
Lactate Dehydrogenase activity. […]. The absorbance intensity was measured at 450 nm.
Troponin I activity. […].
Western blotting. For studies aimed to assess the insulin stimulated AKT phosphorylation, following four-week P7C3 treatment, mice were injected with Novolin R human insulin (1 Unit/kg body weight, i.p.), and hearts were collected after 5 minutes for Western blot analysis. Protein lysates for Western blotting were prepared from mouse hearts as described previously. Equivalent amounts of protein were loaded and resolved using 12% precast polyacrylamide gels (BioRad, CA, USA). Successful transfer of proteins was detected using Ponceau S (Sigma-Aldrich, MO, USA), and blots were probed with mouse monoclonal primary antibody for phospho AKT^ser473 (p-AKT), total AKT (t-AKT), phospho eNOS^ser1177 (p-eNOS), total eNOS (t-eNOS), Beclin1, and GAPDH (Cell signaling, MA, USA). HRP conjugated Rabbit anti-mouse antibody (Millipore) was used as a secondary antibody. Target protein band densities were quantified using Image J software.

In another assay the test system is C57Bl/6J wildtype mice. As to the kind of experiment: In vivo myocardial infarction (permanent LAD ligation). The settings on record: single bolus 10 mg/kg i.p. 30 minutes prior to LAD occlusion; 24 hours; vs vehicle. How it is done:
[…]. All surgical procedures were carried out in aseptic conditions. A left thoracotomy incision was performed at the fourth intercostal space to expose the heart and ligating the LAD coronary artery with an 8-0 polypropylene suture to induce MI as described previously. Myocardial ischemia was confirmed with both the development of pallor myocardium distal to the ligation in the left ventricle and with the ST-segment elevation on the ECG. The skin and muscle incisions were closed with a 6-0 polypropylene suture, and the mice was administered a single dose long-acting analgesic Buprenorphine SR s.c. at 0.5-1.5 mg/kg body weight. The mice were monitored for any signs of pain or discomfort and its feeding and drinking behavior. After 24 hours of occlusion of the LAD coronary artery, the mice were euthanized as per the approved IACUC protocol, and the heart was excised for further processing with 2,3,5-Triphenyltetrazolium chloride (TTC) (Sigma-Aldrich, MO, USA). The whole heart was cut into six parallel short-axis sections and stained with 1% TTC for 90 minutes and fixed overnight in 10% neutral-buffered formalin (Sigma-Aldrich, MO, USA). The TTC stained heart sections were then scanned to determine the total infarct size as the ratio of the infarcted area, i.e., not stained with TTC to the ventricular area of the 4 sections from the apex to the site of occlusion (n=3 mice/group).

The mark [3] stands for this setting: WT hearts perfused with P7C3 3 μM.
The mark [4] stands for this setting: WT hearts, following I/R injury, vs control hearts.

As to `OC(CNc1ccccc1)Cn1c2ccc(Br)cc2c2cc(Br)ccc21` (centres unmarked) [P7C3, 3,6-Dibromo-a-[(phenylamino)methyl]-9H-carbazole-9-ethanol], in the assay with db/db mice [1], the serum pyruvate levels entry is recorded as “significantly high”. Also, the “GTT decrease in circulating blood glucose from 30 minutes onwards” value in the assay on db/db mice [2] (db/db, 4 weeks, between treatment groups) was “non-significant”. Moreover, the “GTT area under curve” value in the assay on db/db mice [2] (db/db, trapezium method, p=0.0021) was “significant difference”. Besides, the “fasting blood glucose levels” value in the assay with db/db mice [2] (overnight fasted db/db, 10 mg/kg/day i.p., 4 weeks, vs vehicle) is “significant decrease”. The “increase in cardiac NAD+/NADH ratio” value in the assay on db/db mice hearts was 2.5 fold. The “cardiac effluent Troponin I levels” value with db/db hearts (30 and 120 minutes post-ischemia) is “significant decrease”. Further, the infarct size in the assay with db/db hearts (P7C3 3 μM prior to and following (2 hour reperfusion) ischemia) is recorded as 18%. In the assay on C57Bl/6J wildtype hearts (setting [3]), the “increase in NAD+/NADH levels” value came out at 3 fold and the “increase in cardiac Nampt activity” value came out at 1.7 fold. Besides, the “ischemic injury (infarct)” value in the assay on C57Bl/6J wildtype hearts (WT hearts, P7C3 3 μM pre- and post-exposure) is given as 8%. The “p-AKT/t-AKT levels post I/R injury” value with C57Bl/6J wildtype hearts (WT hearts, P7C3 3 μM, vs vehicle control hearts) is “significant increase”. Further, in the assay with C57Bl/6J wildtype hearts (setting [4]), the “coronary effluent LDH activity” value is “significantly reduced” and the “coronary effluent Troponin I” value is on record as “significantly reduced”. Besides, the total infarct size entry in the assay on C57Bl/6J wildtype mice was “significant reduction”.
